Assay results reported in a melting point compilation (Tetko et al.; mined from patent text by program, amines drawn as free bases though some values may be those of a salt).

SMILES | melting point [°C]
COc1ccc(-c2nc(C)c(-c3cccnc3)[nH]2)cc1OC | 246 to 248
CC(C(=O)Nc1ccc(-n2nc(C(F)(F)F)cc2C(F)(F)F)cc1)c1ccc(C(=O)c2cccs2)cc1 (configuration not stated) | < 80
NC1CCc2ccccc2NC1=O (configuration not stated) | 161 to 162
CCCOc1ccc(-c2ccc3c(c2)C(C)(C)CCC3(C)C)cc1-c1ccc(C(=O)O)cc1 | 199 to 204
O=C(O)c1cccc(-n2ncc3c2CCc2ccccc2-3)c1 | 273 to 275
OCc1csc(N(c2ccccc2)c2ccccc2)n1 | 136 to 138
NS(=O)(=O)Oc1ccc(C(=O)c2ccc(OS(N)(=O)=O)cc2)cc1 | 182 to 185
COCCCNc1ccc([N+](=O)[O-])cc1C | 26 to 28
CCN(CC)C(=O)n1cnc(S(=O)(=O)c2ccccc2OCC(F)(F)F)n1 | 134 to 135
CC(C)Cc1nc2ccc(Br)cc2c(-c2ccccc2)c1CO | 116 to 118
CC(=O)SCC(C)C(=O)N1C(C(=O)O)CC2CCCCC21 (configuration not stated) | 152 to 154
COc1cccc(Nc2n[nH]c3ncn(-c4cccc(Cl)c4)c(=N)c23)c1 | 190 to 192
CC(=O)Nc1c(C(=O)c2cccc(C)c2)[nH]c2cc(Cl)ccc12 | 96 to 100
COc1ccc(CS(=O)(=O)C(C)(Cc2ccccc2)C(=O)O)cc1 (configuration not stated) | 58 to 59
O=C(Nc1ccc(C2=CCN(C(=O)Nc3ccc(OCCO)cc3Cl)CC2)cc1)Nc1ccccc1F | 173 to 178
CC(c1ccc2c(c1)N(C)c1cc(Cl)ccc1S2)N(O)C(N)=O (configuration not stated) | 176 to 177
OCc1nc2n(n1)-c1cccnc1N(c1ccc(Cl)cc1)C2 | 240 to 245
Cc1cc(I)ccc1OC=C1C=CC=CC1n1nnn(C)c1=O (configuration not stated) | 128 to 130
Cc1cccc(-c2[nH]cnc2-c2ccc(F)c(Br)c2)n1 | 205
Cc1cccc(C)c1C(=O)Oc1cc([N+](=O)[O-])cc([N+](=O)[O-])c1O | 163 to 165
CCCOc1ccc(S(C)(=O)=O)cc1-c1nc2c(CC)n(CC3CC3)nc2c(=O)[nH]1 | 233 to 234
CC(O)CN1CCNC1=S (configuration not stated) | 101 to 102
CCCCCCCOC(=O)C(=C1NCCCS1)[N+](=O)[O-] | 59 to 60
CC(C(O)CCC1CC1)C1CCC2C3CC=C4CC(O)CCC4(C)C3CCC12C (configuration not stated) | 174 to 175

SMILES | melting point [°C]
O=C1Nc2cc(Cl)ccc2OC1CCO (configuration not stated) | 135 to 138
CS(=O)(=O)NCCCC1COCc2nc3c(N)nc4c(c3n21)CCCC4 (configuration not stated) | 197 to 200
O=C1CCNC(=O)C1C(=O)c1ccccc1 (configuration not stated) | 164 to 165
CC(=O)n1ccc2c1CCn1ccnc1C2=C1CCN(C)CC1 | 198
c1ccc2nc(COc3ccc(CCc4ccc(-c5nnn[nH]5)cc4)cc3)ccc2c1 | 203 to 206
CC(C)(C)OC(=O)NC1CCN(c2ccc(C(N)=O)cc2)CC1 | > 270
Cc1[nH]cnc1CSCCN=C(NCCCc1c[nH]cn1)NC(=O)c1ccccc1 | 98.5 to 100
COC(=O)c1ccc(OC)c(O)c1O | 100 to 101
Cc1ccc(Nc2nc(-c3cc(-c4ccccc4)no3)cs2)nc1 | 224 to 227
CC(C)(O)C(=O)Nc1nc(-c2ccco2)c(C(=O)c2ccccc2)s1 | 153 to 154
CC(C)(C)OC(=O)N1CC=C(c2ccc(NCc3ccccc3)cc2)CC1 | 120 to 121
CCOCc1nc2c(N)nc3cccnc3c2n1Cc1ccccc1 | 173 to 174
COc1ccc(C#CC(=Nc2ccc(OC)cc2)N2CCN(Cc3ccc(C)cc3)CC2)cc1 | 107
NC(CC(=O)O)c1ccc(Br)cc1 (configuration not stated) | 234
Nc1nc(F)c(C(F)(F)F)cc1Cl | 101 to 103
O=c1c2c(CCc3ccncc3)n[nH]c2c2cccnc2n1-c1ccccc1 | 267 to 269
O=C(NCC1CN(Cc2ccccc2)CCO1)c1cccc2c1OCO2 (configuration not stated) | 144 to 146
O=C(Nc1ccccn1)Nc1cccc2c1C1CCCCN1C2=O (configuration not stated) | 142
COC(=O)c1ccc(-c2ccc(OC)cc2)cc1 | 170 to 173
COc1cccc([C@H]2O[C@H](CC(N)=O)C(=O)N(CC(C)(C)C)c3ccc(Cl)cc32)c1OC | 170 to 172
CNc1c([N+](=O)[O-])ccc(Cl)c1C#N | 167 to 170
O=C(CCc1ccccc1)N[C@H](Cc1ccc(C(F)(F)F)cc1)[C@@H](O)c1ccccc1F (racemic) | 124 to 125
COC(=O)C(CCCCNC(=O)c1ccc(N)cc1)n1c2ccccc2c2ccccc21 (configuration not stated) | 90 to 91
CCS(=O)(=O)c1cc2c(cc1OC)CCn1c3c(c(-c4cncs4)c1-2)CCCCN(C(C)(C)C)C3=O | 258 to 260

SMILES | melting point [°C]
Nc1ccc([N+](=O)[O-])cc1I | 90 to 95
C=CCN1CCc2cc(OC[C@H]3CO[C@](Cn4ccnc4)(c4ccc(Cl)cc4Cl)O3)ccc2C1 (racemic) | 94 to 95
O=C1CNC2=C(CCc3cc(F)ccc32)C1 | 223 to 224
COc1ccc2c(c1)c(CC#N)cn2C(=O)OC(C)(C)C | 130
CCc1[nH]c2cccc3c2c1CC1C3CC(NC(=O)N(CC)CC)CN1C (configuration not stated) | 165 to 168
CCCCS(=O)(=O)c1c(-c2ccccc2)nn(C)c1-c1ccccc1 | 92.5 to 93
O=C1NCCN(Cc2ccc(OCc3ccccc3)cc2)C1c1ccccc1 (configuration not stated) | 207 to 211
Cc1ccc(-c2ccc(C(=O)Nc3cc4ncc(CN5CCCC5)cc4cc3C)cc2F)cc1 | 175 to 178
COc1cc(O)c(C=O)cc1OC | 104 to 105
CNC(=C[N+](=O)[O-])NCCSCc1csc(CO)n1 | 131 to 132
O=C(O)CCc1cc(CCN2CCC(C(=O)c3ccc(F)cc3)CC2)cc2c1CCC(NS(=O)(=O)c1ccc(Cl)cc1)C2 (configuration not stated) | 210
CCn1ncc2c1NC(=O)CC2C(F)(F)F (configuration not stated) | 129 to 130
O=C(c1ccc(F)cc1)c1cnn2c(-c3ccncc3)ccnc12 | 214 to 216
Cc1nccnc1NCCN1CCC(NC(=O)c2cc(Cl)c(N)c3c2OC(C)(C)C3)CC1 | 163
COCC(=O)N(CC(C)=O)c1c(C)cccc1C | 56 to 57
CC(=O)OC1CSC(Oc2cnc(-c3ccccc3)c(F)c2)C(OC(C)=O)C1OC(C)=O (configuration not stated) | 160 to 162
COc1ccc(C)cc1NC(=O)Nc1ccc(N2CCN(C(=O)OC(C)(C)C)CC2)cc1C | 169 to 171
Cc1ccc2c(c1)S/C(=C(/N)c1ccccc1)C2=O | 166 to 167
O=C(Nc1cccc(S(=O)(=O)N(CCO)CCO)c1)c1cnn2c(C(F)F)cc(-c3ccc(C(F)(F)F)cc3)nc12 | 208
CCCCS(=O)(=O)N(CCN(CC)CC)c1ccc(C(Cl)=C(c2ccccc2)c2ccccc2)cc1 | 65 to 70
O=C(/C=C/C=C(c1cccc(C(F)(F)F)c1)c1cccc(C(F)(F)F)c1)NCCCCc1cccnc1 | 89 to 90
CN(C)CCc1c(CC(C)(C)[N+](=O)[O-])c2ccccc2n1C | 87 to 90
O=C(CCn1ccnc1)N1c2ccccc2Sc2ccccc21 | 150 to 152
CC(C)(CCc1nnn[nH]1)c1ccc(C(=O)Nc2cn3cc(Cl)ccc3n2)cc1 | 250 to 251
